Test results: US20110262450A1, “MODULATORS OF MONOGLYCERIDE LIPASE IN THE TREATMENT OF ACNE, OF SEBORRHOEIC DERMATITIS OR OF HYPERSEBORRHOEA” (priority 2008, published 2011)

How the values were obtained:
[1] = test system: MGLL; experiment: Expression of MGLL in rat sebaceous gland (epidermal split) after topical PPARgamma agonist treatment, real-time PCR; type: in vivo; details: female FUZZY rats, topical 1% in acetone, standardized to 18S, versus carrier group
From the text: • Strain: Ico:Hsd:FUZZY-fz • Gender: female • Age: 10 weeks Number per batch: 40 (8 animals per group) Treatment: Route of administration: topical • Compound/batch: PPARgamma agonists: • A: 5-{4-[2-(methylpyridin-2-ylamino)ethoxy]-benzyl}thiazolidine-2,4-dione • B: (2-methoxyethoxymethoxy)naphthalene-2-carboxylic acid [4′-(2,4-dioxothiazolidin-5-ylmethyl)biphenyl-3-ylmethyl]methylamide or rosiglitazone • C: (S)-2-ethoxy-3-{4-[6-(3-heptyl-1-methyl-ureido)pyridin-2-yl)phenyl}propionic acid • Doses: 1% • Carrier: acetone (001) • Duration 96 hours Method of evaluation: The animals are weighed at the beginning and at the end of the study. Skin biopsies are taken (6 samples of skin excised per rat) in order to analyse the expression of the genes (RNA extraction, reverse transcriptase and real-time PCR). The samples are stored overnight at 4° C. before incubation in 1M sodium bromide (NaBr) for 2 hours at 37° C. After incubation, the samples are separated into epidermis or dermis. The epidermal samples are stored at 20° C. […] PCRs are carried out, beginning with the cDNAs originating from the epidermal splits containing sebaceous glands from control rats or rats treated with a PPARγ agonist: the mRNA is extracted using a column and quantified. The quality of the mRNAs is measured and is represented by the 18S/28S ratio. The results are standardized with respect to 18S, expressed as relative induction versus untreated animals (carrier group). The statistical analysis is obtained using internal software based on a modified Monte Carlo statistical analysis.

[2] = test system: Monoglyceride lipase (MGLL); experiment: Expression of MGLL in Fuzzy rat epidermal split after topical treatment (Affymetrix transcriptome analysis); type: in vivo; details: female FUZZY rats, topical 1% once a day for 8 days, Affymetrix 1388644_at, control condition 214
Procedure: The studies are carried out in female Fuzzy rats (Hsd: Fuzzy-fz) ten weeks old at the beginning of the study. The animals are treated at a dose of 1% (PPARg agonist rosiglitazone in solution in acetone) once a day for 8 days. Two hours after the final treatment, the animals are sacrificed by euthanasia and the skin on the back is removed. After incubation in dispase, the epidermis carrying the sebaceous glands is detached from the dermis (epidermal split). After grinding of the samples, the mRNA is prepared using Qiagen columns, in accordance with the supplier's instructions. The material thus prepared is subjected to large-scale transcriptome analysis on an Affymetrix platform. The data are subsequently standardized and, after statistical analysis, the results produced are expressed in arbitrary expression units (see below) accompanied, for each piece of data, by a statistical value for presence of the transcript (presence=1; absence=0).

In the case of `CN(CCOc1ccc(CC2SC(=O)NC2=O)cc1)c1ccccn1` (stereo not shown) [A, 5-{4-[2-(methylpyridin-2-ylamino)ethoxy]-benzyl}thiazolidine-2,4-dione], the “MGLL relative induction, 0 hours” value [1] is reported as 1, the “MGLL relative induction, 8 hours” value [1] is reported as 2.37 and the “MGLL relative induction, 24 hours” value [1] is reported as 5.06. For the same molecule, the “MGLL relative induction, 48 hours” value [1] was 3.13 and the “MGLL relative induction, 96 hours” value [1] was 5.76.
With `CCCCCCCNC(=O)N(C)c1cccc(-c2ccc(C[C@H](OCC)C(=O)O)cc2)n1` [C, (S)-2-ethoxy-3-{4-[6-(3-heptyl-1-methyl-ureido)pyridin-2-yl)phenyl}propionic acid] the “MGLL relative induction, 0 hours” value [1] was 1, the “MGLL relative induction, 8 hours” value [1] was 5.01 and the “MGLL relative induction, 24 hours” value [1] was 3.90. The “MGLL relative induction, 48 hours” value [1] was 3.88 and the “MGLL relative induction, 96 hours” value [1] was 3.86.
In the case of `CN(CCOc1ccc(CC2SC(=O)NC2=O)cc1)c1ccccn1` (stereo not shown) [rosiglitazone], the “Expression after treatment with 1% rosiglitazone” value [2] is reported as 576 arbitrary expression units.
With “(2-methoxyethoxymethoxy)naphthalene-2-carboxylic acid [4′-(2,4-dioxothiazolidin-5-ylmethyl)biphenyl-3-ylmethyl]methylamide” the “MGLL relative induction, 0 hours” value [1] was 1, the “MGLL relative induction, 8 hours” value [1] was 1.17 and the “MGLL relative induction, 24 hours” value [1] was 2.21. For the same molecule, the “MGLL relative induction, 48 hours” value [1] was 3.12 and the “MGLL relative induction, 96 hours” value [1] was 1.61.
